Assay [1] concerns Nitric Oxide On Stimulated Macrophages. Briefly: Inhibition of nitric oxide on stimulated macrophages. Conditions: Mus musculus, Macrophage, 25 μM compound. In kind it is cell-based. As to the method: Peritoneal exudate macrophages were isolated by peritoneal lavage with ice-cold sterile physiological saline 24 hours after intraperitoneal injection of BALB/c mice with 0.3 ml of sterile zymosan A (1 mg/0.5 mL 0.9% saline). […] All treatments were replicated six times. Cells were incubated for an additional 24 hours, and cell free culture supernatants from each well were collected for NO and cytokine determination. The remaining cells were stained with crystal violet to determine effect of the compound on cell survival. […] The absorbance at 550 nm was determined. All measurements were performed six times.

A further assay has as its system PC3 Cells. Briefly: Tumor cell migration assay. In kind it is cell-based. Conditions: Homo sapiens, PC-3, 25 μM compound. As to the method: The invasion test system (BD Bioscience's BioCoat™ FluoroBlok™ Invasion System including BD BioCoat™ Matrigel™ Invasion Chambers with the fluorescence blocking membrane FluoroBlok™ 24-Multiwell Insert System™) is removed from the package from −20° C. storage and allowed to warm to ambient temperature. PBS is added to the interior of the inserts and they are allowed to rehydrate for 2 hours at 37° C. The medium is then removed and 450 μL cell suspensions of tumor cells (grown to 50-70% confluence, trypsinized, and resuspended in medium without serum at 1×10^6/mL) is added to the top chamber. Test compounds are added to the top chamber at 10× the desired final concentration in 50 μL volumes. DMSO acts as the control. […]
Data is expressed as fluorescence units (FU) from the sum of middle 25 areas per 24-well or as percentage of invasion inhibition by following formula: % of invasion inhibition=100−FU of compound treated cell invasion/FU of DMSO treated cell invasion*100.
Tumor cell migration assay was conducted in the similar way as described in Example 16 except that the plates used were constructed with only a porous membrane dividing a top and bottom chamber without the additional thin Matrigel™ layer on top of the membrane (BD Fluoroblock™ plates). The percent inhibition of migration was determined in the same way as illustrated in Example 16.

Another assay relates to ConA 1° splenocytes. Briefly: Survival of ConA 1° splenocytes (cytotoxicity by MTS staining). Conditions: Mus musculus, Splenocyte, ConA-stimulated splenocytes. In kind it is cell-based, mouse. As to the method: The working concentration of ConA was […]. A 20× working concentration of Concanavalin A was […] was prepared using RPMI-5. The test compounds, dimethylsulfoxide (DMSO) negative vehicle control and staurosporine positive control were diluted twenty times using RPMI-5. Ten μL each of DMSO and staurosporine were combined with 180 μl of medium containing splenocytes in the wells, and 10 μl of 50 μg/ml ConA was immediately added. Medium without ConA was added to the control wells. […] The plates were incubated at 37° C. in 5% CO2 in humidified conditions overnight (18-24 hours) for INFγ.
(MTS). The MTS solution was made fresh and under low light. The electron coupling reagent phenazine methosulfate (PMS) was added at the time of the assay. Twenty μL of MTS solution per 100 μl of tissue culture medium was added to each well. The plates were incubated 37° C. for 4 hours for unstimulated and 18-24 ConA stimulated splenocytes. The absorbance was read at 490 nm wavelength. A kit available to do this assay is “CellTiter 96® AQ Kit AQueous Kit (G5421)” by Promega.

Another assay concerns K5P5 podocyte cell line. Put plainly: Survival assay in podocytes (PAN treatment, MTS). In kind it is cell-based, murine. Conditions: PAN treated K5P5 podocytes. An excerpt:
The treatment of glomerular visceral epithelial cells (podocytes) with high concentrations of puromycin aminonucleoside (PAN) causes significant cytotoxic effects. An assessment of cell viability subsequent to a cytotoxic exposure can be judged qualitatively by examining changes in cell phenotype after staining with crystal violet or determined quantitatively by employing a cytotoxic assay using the soluble tetrazolium salt [3-(4,5-dimethylthiazol-2-yl)-5-(3-carboxymethoxyphenyl)-2-(4-sulfophenyl)-2H-tetrazolium, inner salt] (MTS). Such a system can be used to evaluate the survival effects that ILK compounds have on podocytes following exposure to PAN or other cytotoxic agents.
The cell line employed for the podocyte model was the murine K5P5. […] The cells should be propagate to a maximum of 20 passages.
The flasks were incubated at 37° C., 5% CO2 for 3 days.
The flasks were incubated at 37° C., 5% CO2 for 4 days.
Cells were trypsinized (0.25%), collected from the tissue culture flasks centrifuged, resuspended and counted. […] The flasks were incubated at 37° C., 5% CO2 for 3 days.
10 μl of this 10× compound solution is added to the 80 μl of cells already present in the 96-well plates. For cell undergoing cytotoxic treatment, puromycin aminonuceloside (PAN, Sigma P7130) was added at a 10× concentration to 90 μl of cells. The positive control is PAN treatment without compound. The negative control is 100% DMSO diluted to the same factor as the compounds without PAN.
The plates are incubated at 37° C., 5% CO2 for 48 to 72 hours depending on the PAN concentration (i.e. lower concentrations of PAN required a longer incubation period). The medium is aspirated after plates are spun at 2400 rpm for 10 min at ambient temperature. 100 μl of 1×DPBS (without CaCl2, without MgCl2) is added to each well.
The MTS (Promega) is prepared under low lighting conditions by dissolving 4.0 g of MTS in 1.8 I of 1×DPBS. The solution is allowed to sit for 10 minutes and pH adjusted to 6.2. […] Absorbance is measured at 490 nm wavelength with a microplate reader.

In a further assay the test system is HUVEC. Conditions: HUVEC on Matrigel, VEGF 1 ng/mL, 5 hours. The procedure: Angiogenesis, the formation of new blood vessels from pre-existing endothelium, is a critical process involved in numerous physiological and pathological conditions. Disruption of this tightly regulated process has been implicated in both chronic inflammation and solid tumour growth. The Matrigel™ morphogenesis assay is an in vitro model used to mimic the process by which endothelial cells form capillaries in vivo. Human umbilical vein endothelial cells (HUVECs) were plated over matrigel, a complex mixture of solubilized basement membrane components, and cultured in serum poor medium with specific growth factors and in the presence of the test compound. […] After 5 hours of incubation in a 5% CO2-humidified atmosphere at 37° C., the three-dimensional organization of the cells (the capillary-like structures) was examined using an inverted photomicroscope. The cells were fixed with crystal violet (0.05% in 20% ethanol) and photographed using a digital camera. Qualitative analysis was accomplished by comparing the pattern, size and integrity of the vessels formed in the test wells with those of the VEGF control wells. Quantitative analysis was performed on the images collected using the Image-Pro Plus software program.

For the next assay, the target named is ILK (Homo sapiens (Human), UniProt Q13418). Put plainly: Inhibition of ILK in vitro enzyme assay. Conditions: read-out: IC50 avg. value; recombinant ILK, [γ-32P]-ATP, 15 minutes at ambient temperature.
The test system of a further assay is IL-12 on macrophages. Briefly: Inhibition of IL-12 release from stimulated macrophages. In kind it is cell-based, mouse. Conditions: Mus musculus, Macrophage; LPS and IFN-γ stimulated primary macrophages, ELISA. As to the method: Peritoneal exudate macrophages were isolated by peritoneal lavage with ice-cold sterile physiological saline 24 hours after intraperitoneal injection of BALB/c mice with 0.5 mL of sterile Zymosan A (1 mg/0.5 mL 0.9% saline). […] Murine primary macrophage are activated following incubation with LPS in the presence of sub-optimal doses of IFN-γ. Upon activation, macrophages participate actively in the onset of inflammation by releasing bioactive molecules that amplify the initial inflammatory response. […] Briefly, IL-12 levels in the supernatants from stimulated macrophages were determined with PharMingen's OptEIA™ ELISA set developed using an anti-mouse IL-12 antibody pair and mouse rIL-12 standard (PharMingen). Maxisorp™ F16 multiwell strips (Nunc, Roskilde, Denmark) were coated with anti-mouse IL-12 capture Ab (at recommended concentration) in 0.1 M NaHCO3, pH 9.5, 100 μL/well, overnight at 4° C. […] Plates were washed 3× with PBST and duplicate samples (100 μL/well) or standards (100 μL/well) in diluent buffer were incubated for 2 h. Plates were washed five times with PBST and incubated with biotinylated anti-mouse IL-12 and avidin-horseradish peroxidase (HRP) conjugate (at concentrations recommended by the manufacturer) for 1 h. […] Peritoneal exudate macrophages were isolated by peritoneal lavage with ice-cold sterile physiological saline 24 hours after intraperitoneal injection of BALB/c mice with 0.3 ml of sterile zymosan A (1 mg/0.5 mL 0.9% saline). […] All treatments were replicated six times. Cells were incubated for an additional 24 hours, and cell free culture supernatants from each well were collected for NO and cytokine determination. The remaining cells were stained with crystal violet to determine effect of the compound on cell survival.

Another assay concerns macrophages. Briefly: Survival of macrophages. In kind it is cell-based, mouse. Conditions: Mus musculus, Macrophage; stimulated primary macrophages. As to the method:
Peritoneal exudate macrophages were isolated by peritoneal lavage with ice-cold sterile physiological saline 24 hours after intraperitoneal injection of BALB/c mice with 0.3 ml of sterile zymosan A (1 mg/0.5 mL 0.9% saline). […] 1.5×10^5 cells/well were seeded in 96-well plates and followed by 3 hour incubation at 37° C. with 5% CO2 (macrophages were allowed to attach) cells were stimulated with LPS ([…]/mL) and IFN-γ (100 U/mL) in the absence or presence of the test compounds. All treatments were replicated six times. Cells were incubated for an additional 24 hours, and cell free culture supernatants from each well were collected for NO and cytokine determination. The remaining cells were stained with crystal violet to determine effect of the compound on cell survival.

The subject of a further assay is TNFa on macrophages. Briefly: Inhibition of TNFα release from stimulated macrophages. In kind it is cell-based, mouse. Conditions: Mus musculus, Macrophage; LPS and IFN-γ stimulated primary macrophages, ELISA. The procedure: Peritoneal exudate macrophages were isolated by peritoneal lavage with ice-cold sterile physiological saline 24 hours after intraperitoneal injection of BALB/c mice with 0.5 mL of sterile Zymosan A (1 mg/0.5 mL 0.9% saline). […] Murine primary macrophage will get activated following incubation with LPS in the presence of sub-optimal doses of IFN-γ. […] TNF-αlevels in the supernatants from stimulated macrophages were determined with PharMingen's OptEIA TNF-α kit (PharMingen). The experiment was performed at room temperature, about 21° C., unless otherwise stated. The microwells (F8 MaxiSorp™ Loose/Nunc-Immuno Module; Gibco/BRL) were coated with 100 μl/well of capture antibody (at the recommended concentration) and incubated overnight at 4° C. […] Next, the solution was removed and the plates were washed 5× with wash buffer. The TNF-αanalysis was initiated by adding duplicate samples (100 μl/well) or standards (100 μl/well) in diluent buffer which were incubated for 2 h. The solution was removed and the plates washed 5× with wash buffer. Enzyme reagent (100 μl) containing biotinylated mouse TNF-αmonoclonal antibody and avidin-horseradish peroxidase conjugate (at concentrations recommended by the manufacturer) was added to each well. The plate was incubated for 1 hour, the solution removed, and the plates washed 7× with wash buffer. […] Colour development was terminated by adding 50 μl of 2N H2SO4. […] Peritoneal exudate macrophages were isolated by peritoneal lavage with ice-cold sterile physiological saline 24 hours after intraperitoneal injection of BALB/c mice with 0.3 ml of sterile zymosan A (1 mg/0.5 mL 0.9% saline). […] All treatments were replicated six times. Cells were incubated for an additional 24 hours, and cell free culture supernatants from each well were collected for NO and cytokine determination. The remaining cells were stained with crystal violet to determine effect of the compound on cell survival.

Results on 9 compounds are retold here after patent US8754233B2, “Pyrazolylbenzothiazole derivatives and their use as therapeutic agents” (Dermira (Canada), Inc., priority 2002, dated 2014).

pIC50: −log10 of the molar value.

Chain of ILK (Q13418 whole entry): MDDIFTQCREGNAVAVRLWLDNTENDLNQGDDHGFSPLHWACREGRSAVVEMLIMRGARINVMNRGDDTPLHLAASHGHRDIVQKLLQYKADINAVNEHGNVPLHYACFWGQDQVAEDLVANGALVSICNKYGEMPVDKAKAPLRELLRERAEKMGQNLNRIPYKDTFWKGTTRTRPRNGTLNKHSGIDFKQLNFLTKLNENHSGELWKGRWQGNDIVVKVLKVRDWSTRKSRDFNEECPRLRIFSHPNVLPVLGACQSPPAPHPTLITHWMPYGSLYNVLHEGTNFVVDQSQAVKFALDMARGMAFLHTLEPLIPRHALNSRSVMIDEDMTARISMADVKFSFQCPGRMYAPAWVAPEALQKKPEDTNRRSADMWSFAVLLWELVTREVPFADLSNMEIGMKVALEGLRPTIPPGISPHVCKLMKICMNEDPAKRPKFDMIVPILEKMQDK
Description for ILK: The target ILK is a full-length recombinant protein expressed in Hi5 insect cells by baculovirus infection. Recombinant ILK protein was expressed using cultured insect cells and a baculovirus expression system. […] This ILK transfer construct was then co-transfected with BaculoGold™ DNA (Pharmingen) into Sf9 insect cells (Invitrogen) and a high titre preparation of GST-ILK recombinant baculovirus was produced by amplification in Sf9 cells. Liter scale expression of GST-ILK recombinant protein was done in 1000 mL spinner flasks (Bellco) by infection of Hi5 insect cells (Invitrogen) grown in Ex-Cell™ 400 serum free media (JRH Biosciences) at a multiplicity of infection of approximately 5. […]
From each assay mixture, 10 μL of assay mixture was spotted onto Millipore Multiscreen-PH™ opaque plates and washed twice for 10 minutes in 1% phosphoric acid. The plates were dried at 40° C. for 30 minutes, then substrate-phosphate complexes were quantitated by scintillation counting. […]
Inhibition of ILK by the test compounds is measured by scintillation counting of the incorporation of radioactive phosphate onto a specific substrate which is immobilized onto a filter paper at the end of the assay. […]
The “baseline activity” is the amount of radioactivity incorporated in the absence of a target inhibitor.

Consider `Nc1n[nH]c(Nc2ccc3ncccc3c2)c1-c1nc2ccccc2s1` [4-Benzothiazol-2-yl-N^5-quinolin-6-yl-1H-pyrazole-3,5-diamine], for which the inhibition at 25 µM in assay [1] turned out to be 66.1%; with PC3 Cells, 81%.

In the assay on ConA 1° splenocytes, `Cc1n[nH]c(N)c1-c1nc2cc(F)c(S(=O)(=O)NCCO)cc2s1` [2-(5-Amino-3-methyl-1H-pyrazol-4-yl)-5-fluorobenzothiazole-6-sulfonic acid (2-hydroxy-ethyl)-amide] showed a pIC50 below 4.60. In the assay on K5P5 podocyte cell line (@ 25 μM), the “% Survival” value is reported as 30%.

As to `CSc1[nH]nc(N)c1-c1nc2ccccc2s1` [4-Benzothiazol-2-yl-5-methylsulfanyl-1H-pyrazol-3-ylamine], in the assay with HUVEC, the “% Inhibition of angiogenesis” value came to 84%.

Consider `Oc1ccc(-c2n[nH]cc2-c2nc3ccccc3s2)c(O)c1` [4-(4-Benzothiazol-2-yl-1H-pyrazol-3-yl)-benzene-1,3-diol], for which 25 µM produced 44.8% inhibition with PC3 Cells. Also, at ILK, the pIC50 is 5.48.

Consider `Nc1n[nH]c(N2CCCC2)c1-c1nc2ccccc2s1` [4-Benzothiazol-2-yl-5-pyrrolidin-1-yl-1H-pyrazol-3-ylamine], for which the “% Inhibition of angiogenesis” value with HUVEC was 50%.

Regarding `Cc1[nH]nc(N)c1-c1nc2ccccc2s1` [4-Benzothiazol-2-yl-5-methyl-1H-pyrazol-3-ylamine], the “% Inhibition of angiogenesis” value in the assay with HUVEC is recorded as 64%.

For the compound `Nc1[nH]nc(-c2ccncc2)c1-c1nc2ccccc2s1` [4-Benzothiazol-2-yl-5-pyridin-4-yl-2H-pyrazol-3-ylamine], the pIC50 with ConA 1° splenocytes, in the assay with IL-12 on macrophages and in the assay with macrophages was below 4.60 throughout.

As to `Nc1n[nH]c(N)c1-c1nc2ccccc2s1` [4-Benzothiazol-2-yl-1H-pyrazole-3,5-diamine], the “% Inhibition of angiogenesis” value in the assay with HUVEC stood at 32%.

With `Cc1n[nH]c(N)c1-c1nc2cc(F)c(S(N)(=O)=O)cc2s1` [2-(5-Amino-3-methyl-1H-pyrazol-4-yl)-5-fluoro-benzothiazole-6-sulfonic acid amide], in the assay with TNFa on macrophages, the negative-log IC50 (pIC50) was 6.05. The “% Survival” value in the assay on K5P5 podocyte cell line (@ 12.5 μM) was determined as 30%.
